Experimental data reported in ChEMBL document CHEMBL1140771, “Heteroallyl-containing 5-nitrofuranes as new anti-Trypanosoma cruzi agents with a dual mechanism of action” (Bioorg Med Chem, 2008).
≈ marks a conversion by molar mass, not a printed value. Values belong to the compound of their own block, whether it stands above or below them.

Columns and labels:
Trypanosoma cruzi [1] = test: Effect on oxygen redox cycling in Trypanosoma cruzi Y epimastigotes assessed as rate of oxygen consumption at 120 uM in presence of cyanide relative to control; format: functional
Trypanosoma cruzi [2] = test: Effect on oxygen uptake in Trypanosoma cruzi Y epimastigotes assessed as rate of oxygen consumption at 80 uM relative to control; format: functional
Trypanosoma cruzi [3] = test: Antitrypanosomal activity against Trypanosoma cruzi EP amastigotes; format: functional, organism-based
Trypanosoma cruzi [4] = test: Antitrypanosomal activity against Trypanosoma cruzi EP epimastigotes after 96 hrs; format: functional
Vero = test: Cytotoxicity against african green monkey Vero cells; format: cell-based; details: Chlorocebus sabaeus
Trypanosoma cruzi [5] = test: Effect on oxygen uptake in Trypanosoma cruzi Y epimastigotes assessed as rate of oxygen consumption at 120 uM relative to control; format: functional
Trypanosoma cruzi [6] = test: Effect on oxygen redox cycling in Trypanosoma cruzi Y epimastigotes assessed as rate of oxygen consumption at 80 uM in presence of cyanide relative to control; format: functional
Trypanosoma cruzi [7] = test: Antitrypanosomal activity against Trypanosoma cruzi Y epimastigotes after 48 hrs by MTT assay; format: functional, organism-based
Trypanosoma cruzi [8] = test: Antitrypanosomal activity against Trypanosoma cruzi EP amastigotes in Vero cells after 96 hrs; format: functional
Trypanosoma cruzi [9] = test: Inhibition of sterol biosynthesis in Trypanosoma cruzi EP epimastigotes assessed as exogenous cholesterol levels at 10 uM after 120 hrs; format: functional; set-up: scale not given: the % may be the effect or the level left
Trypanosoma cruzi [10] = test: Inhibition of sterol biosynthesis in Trypanosoma cruzi EP epimastigotes assessed as endogenous squalene levels at 10 uM after 120 hrs; format: functional; set-up: scale not given: the % may be the effect or the level left
Trypanosoma cruzi [11] = test: Inhibition of sterol biosynthesis in Trypanosoma cruzi EP epimastigotes assessed as endogenous squalene levels at 30 uM after 120 hrs; format: functional; set-up: scale not given: the % may be the effect or the level left
Trypanosoma cruzi [12] = test: Inhibition of sterol biosynthesis in Trypanosoma cruzi EP epimastigotes assessed as 24-ethyl-5,7,22-cholestatrien-3beta-ol levels at 30 uM after 120 hrs; format: functional; set-up: scale not given: the % may be the effect or the level left
Trypanosoma cruzi [13] = test: Inhibition of sterol biosynthesis in Trypanosoma cruzi EP epimastigotes assessed as ergosterol levels at 30 uM after 120 hrs; format: functional; set-up: scale not given: the % may be the effect or the level left
Trypanosoma cruzi [14] = test: Inhibition of sterol biosynthesis in Trypanosoma cruzi EP epimastigotes assessed as exogenous cholesterol levels at 30 uM after 120 hrs; format: functional; set-up: scale not given: the % may be the effect or the level left
Trypanosoma cruzi [15] = test: Inhibition of sterol biosynthesis in Trypanosoma cruzi EP epimastigotes assessed as ergosta-5,7-dien-3beta-ol levels at 3 uM after 120 hrs; format: functional; set-up: scale not given: the % may be the effect or the level left
Trypanosoma cruzi [16] = test: Inhibition of sterol biosynthesis in Trypanosoma cruzi EP epimastigotes assessed as exogenous cholesterol levels at 3 uM after 120 hrs; format: functional; set-up: scale not given: the % may be the effect or the level left
Trypanosoma cruzi [17] = test: Inhibition of sterol biosynthesis in Trypanosoma cruzi EP epimastigotes assessed as 24-ethyl-5,7,22-cholestatrien-3beta-ol levels at 3 uM after 120 hrs; format: functional; set-up: scale not given: the % may be the effect or the level left
Trypanosoma cruzi [18] = test: Inhibition of sterol biosynthesis in Trypanosoma cruzi EP epimastigotes assessed as endogenous squalene levels at 3 uM after 120 hrs; format: functional; set-up: scale not given: the % may be the effect or the level left
Trypanosoma cruzi [19] = test: Inhibition of sterol biosynthesis in Trypanosoma cruzi EP epimastigotes assessed as ergosterol levels at 3 uM after 120 hrs; format: functional; set-up: scale not given: the % may be the effect or the level left
Trypanosoma cruzi [20] = test: Effect on oxygen redox cycling in Trypanosoma cruzi Y epimastigotes assessed as rate of oxygen consumption at 166 uM in presence of cyanide relative to control; format: functional
Trypanosoma cruzi [21] = test: Effect on oxygen uptake in Trypanosoma cruzi Y epimastigotes assessed as rate of oxygen consumption at 166 uM relative to control; format: functional
Trypanosoma cruzi [22] = test: Inhibition of sterol biosynthesis in Trypanosoma cruzi EP epimastigotes assessed as ergosta-5,7-dien-3beta-ol levels at 30 uM after 120 hrs; format: functional; set-up: scale not given: the % may be the effect or the level left
Trypanosoma cruzi [23] = test: Inhibition of sterol biosynthesis in Trypanosoma cruzi EP epimastigotes assessed as ergosta-5,7-24(24')-trien-3beta-ol levels at 30 uM after 120 hrs; format: functional; set-up: scale not given: the % may be the effect or the level left
Trypanosoma cruzi [24] = test: Inhibition of sterol biosynthesis in Trypanosoma cruzi EP epimastigotes assessed as ergosta-5,7-24(24')-trien-3beta-ol levels at 3 uM after 120 hrs; format: functional; set-up: scale not given: the % may be the effect or the level left
Trypanosoma cruzi [25] = test: Effect on oxygen uptake in Trypanosoma cruzi Y epimastigotes assessed as rate of oxygen consumption at 60 uM relative to control; format: functional
Trypanosoma cruzi [26] = test: Inhibition of sterol biosynthesis in Trypanosoma cruzi EP epimastigotes assessed as 24-ethyl-5,7-cholestadien-3beta-ol levels at 3 uM after 120 hrs; format: functional; set-up: scale not given: the % may be the effect or the level left
Trypanosoma cruzi [27] = test: Inhibition of sterol biosynthesis in Trypanosoma cruzi EP epimastigotes assessed as ergosterol levels at 10 uM after 120 hrs; format: functional; set-up: scale not given: the % may be the effect or the level left
Trypanosoma cruzi [28] = test: Effect on oxygen redox cycling in Trypanosoma cruzi Y epimastigotes assessed as rate of oxygen consumption at 60 uM in presence of cyanide relative to control; format: functional
Trypanosoma cruzi [29] = test: Inhibition of sterol biosynthesis in Trypanosoma cruzi EP epimastigotes assessed as 24-ethyl-5,7-cholestadien-3beta-ol levels at 10 uM after 120 hrs; format: functional; set-up: scale not given: the % may be the effect or the level left
Trypanosoma cruzi [30] = test: Inhibition of sterol biosynthesis in Trypanosoma cruzi EP epimastigotes assessed as ergosta-5,7-24(24')-trien-3beta-ol levels at 10 uM after 120 hrs; format: functional; set-up: scale not given: the % may be the effect or the level left
Trypanosoma cruzi [31] = test: Inhibition of sterol biosynthesis in Trypanosoma cruzi EP epimastigotes assessed as ergosta-5,7-dien-3beta-ol levels at 10 uM after 120 hrs; format: functional; set-up: scale not given: the % may be the effect or the level left

SMILES: C=C(C)CNC(=O)N/N=C/c1ccc([N+](=O)[O-])o1
Activity (Trypanosoma cruzi [1]): 27%
Activity (Trypanosoma cruzi [2]): 110%
IC50 (Trypanosoma cruzi [3]): 900 nM
MIC (Trypanosoma cruzi [4]): 10 µM (≈ 2.52 µg/mL)
IC50 (Vero): 32.1 µM
Activity (Trypanosoma cruzi [5]): 148%
Activity (Trypanosoma cruzi [6]): 33%
IC50 (Trypanosoma cruzi [7]): 3.8 µM
MIC (Trypanosoma cruzi [8]): 10 µM (≈ 2.52 µg/mL)
Activity (Trypanosoma cruzi [9]): 31.9%
Activity (Trypanosoma cruzi [10]): 68.1%

SMILES: C=CCOC(=O)N/N=C/c1ccc([N+](=O)[O-])o1
Activity (Trypanosoma cruzi [11]): 33.1%
MIC (Trypanosoma cruzi [4]): 30 µM (≈ 7.18 µg/mL)
Activity (Trypanosoma cruzi [12]): 6.8%
Activity (Trypanosoma cruzi [13]): 7%
Activity (Trypanosoma cruzi [14]): 53.1%

SMILES: O=C(N/N=C/C=C/c1ccc([N+](=O)[O-])o1)Oc1ccccc1
Activity (Trypanosoma cruzi [20]): 8%
IC50 (Trypanosoma cruzi [3]): 310 nM
MIC (Trypanosoma cruzi [4]): 3 µM (≈ 0.904 µg/mL)
IC50 (Vero): 9.1 µM
IC50 (Trypanosoma cruzi [7]): 6.7 µM
MIC (Trypanosoma cruzi [8]): 3 µM (≈ 0.904 µg/mL)
Activity (Trypanosoma cruzi [16]): 46.9%
Activity (Trypanosoma cruzi [9]): 8.1%
Activity (Trypanosoma cruzi [10]): 91.9%
Activity (Trypanosoma cruzi [18]): 45.2%
Activity (Trypanosoma cruzi [19]): 7.9%
Activity (Trypanosoma cruzi [21]): 88%

SMILES: O=C(N/N=C/c1ccc([N+](=O)[O-])o1)Oc1ccccc1
Activity (Trypanosoma cruzi [24]): 2.4%
Activity (Trypanosoma cruzi [15]): 6%
Activity (Trypanosoma cruzi [25]): 105%
IC50 (Trypanosoma cruzi [3]): 2300 nM
Activity (Trypanosoma cruzi [26]): 3.6%
MIC (Trypanosoma cruzi [4]): 10 µM (≈ 2.75 µg/mL)
Activity (Trypanosoma cruzi [27]): 4.4%
IC50 (Vero): 19.4 µM
IC50 (Trypanosoma cruzi [7]): 10.6 µM
MIC (Trypanosoma cruzi [8]): 30 µM (≈ 8.26 µg/mL)
Activity (Trypanosoma cruzi [16]): 32.3%
Activity (Trypanosoma cruzi [9]): 35%
Activity (Trypanosoma cruzi [10]): 60.6%
Activity (Trypanosoma cruzi [17]): 9%
Activity (Trypanosoma cruzi [18]): 39.1%
Activity (Trypanosoma cruzi [19]): 7.6%
Activity (Trypanosoma cruzi [28]): 31%

SMILES: O=C(N/N=C/C=C/c1ccc([N+](=O)[O-])o1)OC/C=C/c1ccccc1
Activity (Trypanosoma cruzi [24]): 2.1%
Activity (Trypanosoma cruzi [1]): 40%
Activity (Trypanosoma cruzi [15]): 8%
Activity (Trypanosoma cruzi [2]): 89%
IC50 (Trypanosoma cruzi [3]): 650 nM
MIC (Trypanosoma cruzi [4]): 10 µM (≈ 3.41 µg/mL)
IC50 (Vero): 11.1 µM
Activity (Trypanosoma cruzi [5]): 160%
Activity (Trypanosoma cruzi [6]): 38%
IC50 (Trypanosoma cruzi [7]): 3.7 µM
MIC (Trypanosoma cruzi [8]): 10 µM (≈ 3.41 µg/mL)
Activity (Trypanosoma cruzi [29]): 6.7%
Activity (Trypanosoma cruzi [16]): 33.9%
Activity (Trypanosoma cruzi [9]): 6.7%
Activity (Trypanosoma cruzi [10]): 93.3%
Activity (Trypanosoma cruzi [17]): 16%
Activity (Trypanosoma cruzi [18]): 19%
Activity (Trypanosoma cruzi [19]): 21%

More lines, main results first:

MIC (Trypanosoma cruzi [4]): 10 µM (≈ 2.78 µg/mL)
SMILES: C=C(C)CNC(=O)N/N=C/C=C/c1ccc([N+](=O)[O-])o1
Activity (Trypanosoma cruzi [15]): 6.1%
Activity (Trypanosoma cruzi [16]): 20.3%
Activity (Trypanosoma cruzi [9]): 9.2%
Activity (Trypanosoma cruzi [10]): 90.8%
Activity (Trypanosoma cruzi [17]): 10.8%
Activity (Trypanosoma cruzi [18]): 44.4%
Activity (Trypanosoma cruzi [19]): 18.4%

MIC (Trypanosoma cruzi [4]): > 30 µM
SMILES: C=CCOC(=O)N/N=C/C=C/c1ccc([N+](=O)[O-])o1
Activity (Trypanosoma cruzi [22]): 4.6%
Activity (Trypanosoma cruzi [11]): 36.4%
Activity (Trypanosoma cruzi [23]): 4%
Activity (Trypanosoma cruzi [12]): 10.6%
Activity (Trypanosoma cruzi [13]): 15%
Activity (Trypanosoma cruzi [14]): 29.4%

MIC (Trypanosoma cruzi [4]): 30 µM (≈ 9.46 µg/mL)
SMILES: O=C(N/N=C/c1ccc([N+](=O)[O-])o1)OC/C=C/c1ccccc1
Activity (Trypanosoma cruzi [11]): 64.4%
Activity (Trypanosoma cruzi [27]): 10.4%
Activity (Trypanosoma cruzi [30]): 2.3%
Activity (Trypanosoma cruzi [12]): 7.8%
Activity (Trypanosoma cruzi [31]): 5%
Activity (Trypanosoma cruzi [9]): 52.5%
Activity (Trypanosoma cruzi [10]): 16%
Activity (Trypanosoma cruzi [13]): 5.8%
Activity (Trypanosoma cruzi [14]): 22%
